Assays:
Format in all cases: in vivo
[1] = system: Haemaphysalis longicornis; experiment: Test Example 11: coated screw tube contact test, Haemaphysalis longicornis ticks; conditions: 2 mg compound coated on inner wall of screw tube, non-blood-sucking nymphal ticks, after 2 days
Procedure: 2 mg of each of the compounds 1-6, 1-10, 1-15, 1-24 or 1-37 to 1-38 was weighed in a screw tube (Maruemu No. 5; 27×55 mm), and 0.2 mL of acetone was added thereto and sealed with a cap to dissolve the compound. The screw tube was rotated and inverted to uniformly coat the liquid onto the whole inner wall of the tube. After removing the cap, the solution was air-dried for about 2 hours, then non-blood-sucking nymphal ticks, Haemaphysalis longicornis (5 ticks/group) were released, and the tube was sealed with the cap. After 2 days, the number of dead insects was counted, and the death rate was calculated according to the following equation: Death rate (%)=100×(Number of dead insects/Number of tested insects)

Blattella germanica = experiment: Test Example 9: filter paper with sucrose bait, Blattella germanica; conditions: 500 ppm, 0.7 ml on filter paper, male imagoes, after 6 days
Procedure: The formulation of the compound 1-6 or 1-24 as obtained in Formulation Example 5 was diluted with water, so as to have a concentration of each compound of 500 ppm, to obtain a diluent.
A filter paper having a diameter of 5.5 cm was spread on the bottom of a polyethylene cup having the same diameter and 0.7 ml of the diluent was added dropwise onto the filter paper, and 30 mg of sucrose was uniformly placed as bait. Into the polyethylene cup, 2 male imagoes of Blattella germanica were released, and the cup was sealed with a lid. After 6 days, the life and death of Blattella germanica was examined, the number of dead insects was counted, and the death rate was calculated according to the following equation. Death rate (%)=(Number of dead insects/Number of tested insects)×100

Aphis gossypii = experiment: Test Example 2: soil drench of cucumber seedling, later inoculated with Aphis gossypii; conditions: 500 ppm, 5 ml drench at foot of cucumber seedling, inoculated after 7 days, examined 6 days later
Procedure: The formulations of the compound 1-24 as obtained in Formulation Example 5 was diluted with water, so as to have a concentration of each compound of 500 ppm, to obtain a diluent. On the other hand, a cucumber seedling (the second true leaf stage) planted in a plastic cup was drenched at its foot with 5 ml of the diluent, and kept in a greenhouse at 25° C. for 7 days. On the cucumber leaf surface was inoculated about 30 Aphis gossypii (whole stage), and further kept in the greenhouse for 6 days, then the number of the surviving Aphis gossypii parasitic on the leaves of the cucumber was examined, and the control value was calculated according to the following equation: Control value (%)=(1−(Cb×Tai)/(Cai×Tb))×100 wherein the symbols represent as follows: Cb: the number of the insects in a non-treated section on inoculating insects Cai: the number of the surviving parasitic insects in a non-treated section on observation Tb: the number of the insects in a treated section on inoculating insects Tai: the number of the surviving parasitic insects in a treated section on observation wherein the non-treated section refers to a section where a liquid prepared by diluting the formulation not containing the present compound in Formulation Example 5 with the same amount of water as in the treated section was sprayed.

Nilaparvata lugens = experiment: Test Example 4: soil drench of rice seedling, Nilaparvata lugens larvae released; conditions: 500 ppm, 5 ml drench at foot of rice seedling, third instar larvae released after 7 days, examined 6 days later
Procedure: The formulation of the compound 1-15 as obtained in Formulation Example 5 was diluted with water, so as to have a concentration of the compound of 500 ppm, to obtain a diluent.
On the other hand, a rice seedling (2 weeks after sowing, the second leaf stage) planted in a plastic cup was drenched at its foot with 5 ml of the diluent, and kept in a greenhouse at 25° C. for 7 days. 20 third instar larvae of Nilaparvata lugens were released, and further kept in the greenhouse for 6 days, then the number of surviving Nilaparvata lugens parasitic on the rice was examined, and the death rate was calculated according to the following equation: Death rate (%)=(1−Surviving insects/20)×100
wherein the non-treated section refers to a section where a liquid prepared by diluting the formulation not containing the present compound in Formulation Example 5 with the same amount of water as in the treated section was sprayed.

SMILES	Death rate [1] [%]	Death rate (Blattella germanica) [%]	controlling value (Aphis gossypii) [%]	Death rate (Nilaparvata lugens) [%]
CCS(=O)(=O)c1cccnc1-c1noc(-c2cc(Cl)cc(Cl)c2)n1 [Compound 1-38]	100	–	–	–
CCSc1cc(C(F)(F)F)ccc1-c1nc(-c2ccc(C(F)(F)F)cn2)no1 [Compound 1-6]	100	100	–	–
CCS(=O)(=O)c1ccccc1-c1noc(-c2cc(C(F)(F)F)cc(C(F)(F)F)c2)n1 [Compound 1-24]	100	100	≥ 90	–
CCSc1cc(C(F)(F)F)ccc1-c1nnc(-c2ccc(C(F)(F)F)cn2)s1 [Compound 1-10]	100	–	–	–
CCS(=O)(=O)c1cccnc1-c1noc(-c2cc(C(F)(F)F)cc(C(F)(F)F)c2)n1 [Compound 1-15]	100	–	–	≥ 90
CCS(=O)(=O)c1cccnc1-c1noc(-c2ccc(C(F)(F)F)s2)n1 [Compound 1-37]	100	–	–	–

Source: patent US9884858B2, “Diaryl-azole compound” (Sumitomo Chemical Company, Limited, priority 2014, dated 2018)
